The results in this text go back to patent US10611778B2, “Fused bicyclic inhibitors of menin-MLL interaction” (Janssen Pharmaceutica NV, priority 2016, dated 2020).

The target of the assay is T1, Menin/MLL (terbium chelate-labeled menin, FITC-MBM1 peptide) (Homo sapiens, UniProt O00255, T541A).
T1 construct: Menin (a.a. 1-610-6×his tag) was labeled with terbium cryptate as follows
T1 sequence (O00255 with tags, fused parts or gaps T541A): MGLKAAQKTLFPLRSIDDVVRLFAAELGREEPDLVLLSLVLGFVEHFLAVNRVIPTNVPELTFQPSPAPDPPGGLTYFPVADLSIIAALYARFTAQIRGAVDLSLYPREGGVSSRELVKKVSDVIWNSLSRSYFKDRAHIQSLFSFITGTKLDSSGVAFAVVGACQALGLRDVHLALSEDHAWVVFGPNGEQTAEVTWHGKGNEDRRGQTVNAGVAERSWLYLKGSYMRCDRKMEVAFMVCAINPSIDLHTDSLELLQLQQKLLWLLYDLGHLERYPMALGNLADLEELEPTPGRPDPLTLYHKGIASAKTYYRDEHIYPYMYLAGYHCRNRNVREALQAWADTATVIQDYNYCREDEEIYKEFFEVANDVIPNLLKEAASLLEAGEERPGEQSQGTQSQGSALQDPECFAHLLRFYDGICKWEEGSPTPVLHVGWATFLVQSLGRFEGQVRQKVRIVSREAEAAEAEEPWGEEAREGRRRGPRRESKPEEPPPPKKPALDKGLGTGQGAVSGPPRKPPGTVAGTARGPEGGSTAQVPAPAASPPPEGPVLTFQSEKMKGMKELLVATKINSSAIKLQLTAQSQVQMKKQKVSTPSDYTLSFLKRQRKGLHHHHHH
The experiment in a line: Menin/MLL homogenous time-resolved fluorescence (HTRF) assay. It is filed as binding. The protocol:
3) Menin/MLL Homogenous Time-Resolved Fluorescence (HTRF) Assay
To an untreated, white 384-well microtiter plate was added 40 nL 200× test compound in DMSO and 4 μL 2× terbium chelate-labeled menin (vide infra for preparation) in assay buffer (40 mM Tris-HCl, pH 7.5, 50 mM NaCl, 1 mM DTT and 0.05% Pluronic F-127). After incubation of test compound and terbium chelate-labeled menin for 5 min at ambient temperature, 4 μL 2×FITC-MBM1 peptide (FITC-β-alanine-SARWRFPARPGT-NH2) in assay buffer was added, the microtiter plate centrifuged at 1000 rpm for 1 min and the assay mixtures incubated for 15 min at ambient temperature. The relative amount of menin⋅FITC-MBM1 complex present in an assay mixture is determined by measuring the homogenous time-resolved fluorescence (HTRF) of the terbium/FITC donor/acceptor fluorophore pair using a BMG Pherastar plate reader (ex. 337 nm/terbium em. 490 nm/FITC em. 520 nm) at ambient temperature. The degree of fluorescence resonance energy transfer (the HTRF value) is expressed as the ratio of the fluorescence emission intensities of the FITC and terbium fluorophores (F^em 520 nm/F^em 490 nm). The final concentrations of reagents in the binding assay are 100 pM terbium chelate-labeled menin, 75 nM FITC-MBM1 peptide and 0.5% DMSO in assay buffer. Dose-response titrations of test compounds are conducted using an 11 point, three-fold serial dilution scheme, starting at 31 μM.
Compound potencies were determined by first calculating % inhibition at each compound concentration according to equation 1: % inhibition=((HC−LC)−(HTRF^compound−LC))/(HC−LC))*100 (Eqn 1)
Where LC and HC are the HTRF values of the assay in the presence or absence of a saturating concentration of a compound that competes with FITC-MBM1 for binding to menin, and HTRF^compound is the measured HTRF value in the presence of the test compound. HC and LC HTRF values represent an average of at least 16 replicates per plate.
Where Bottom and Top are the lower and upper asymptotes of the dose-response curve, respectively, IC50 is the concentration of compound that yields 50% inhibition of signal and h is the Hill coefficient.
Preparation of Terbium cryptate labeling of Menin: Menin (a.a. 1-610-6×his tag) was labeled with terbium cryptate as follows. 2 mg of Menin was buffer exchanged into 1× phosphate buffered saline. 16 uM Menin was incubated with 4-fold molar excess NHS-terbium cryptate (Cisbio Bioassays, Bedford, Mass.) for 2 hours at room temperature. The labeled protein was purified away from free label by running the reaction over a Superdex 200 Increase 10/300 GL column at 0.75 ml/min. Peak fractions were collected, aliquoted and frozen at −80° C.
Background: In TR-FRET formats the signal depends on donor and acceptor labels being close together.

Setting [1] is: averaged values over all measurements, read-out: Menin HTRF assay (IC50).

Read-outs that look alike come from different tables or passages of the source. Bounds are passed on as bounds.

Usually IC50 stands for the concentration that inhibits the measured activity by half. In the case of `C[C@@H](c1cnn(C)c1)N1CC[C@@H]2CN(c3ncnc4sc(CC(F)(F)F)cc34)C[C@@H]2C1` (single isomer, unassigned) [Compound 79B], the half-maximal inhibitory concentration (IC50) under setting [1] was found to be 964 nM.

`FC(F)(F)Cc1cc2c(N3C[C@H]4CN(Cc5cccnc5)CC[C@H]4C3)ncnc2s1` (single isomer, unassigned) [Compound 72]: the IC50 under setting [1] turned out to be 991 nM.

As to `Cc1ncc(CN2CC[C@@H]3CN(c4ncnc5sc(CC(F)(F)F)cc45)C[C@@H]3C2)cn1` (single isomer, unassigned) [Compound 90], under setting [1], the IC50 was 317 nM.

Turning to `Cn1cc(CN2CC[C@@H]3CN(c4ncnc5sc(CC(F)(F)F)cc45)C[C@@H]3C2)cn1` (single isomer, unassigned) [Compound 87], the IC50 under setting [1] was 20 nM.

In the case of `FC(F)(F)Cc1cc2c(N3C[C@H]4CCN(Cc5cncnc5)C[C@H]4C3)ncnc2s1` (single isomer, unassigned) [Compound 104], the half-maximal inhibitory concentration (IC50) under setting [1] stood at 375 nM.

For `FC(F)(F)Cc1cc2c(N3C[C@H]4CCN(CCc5ccccc5)C[C@H]4C3)ncnc2s1` (single isomer, unassigned) [Compound 48], the half-inhibitory concentration (IC50) under setting [1] amounted to 446 nM.

On to `CC(C)[C@H](c1cnn(C)c1)N1CC[C@@H]2CN(c3ncnc4sc(CC(F)(F)F)cc34)C[C@@H]2C1` (single isomer, unassigned) [Compound 77A], for which the half-maximal inhibitory concentration (IC50) under setting [1] was 201 nM.

For the compound `O=C([C@@H]1CCCN1)N1CC[C@H]2CN(c3ncnc4sc(CC(F)(F)F)cc34)C[C@H]2C1` [Compound 83], the half-maximal inhibitory concentration (IC50) under setting [1] is 985 nM.

Turning to `CC(C)[C@@H](c1cnn(C)c1)N1CC[C@@H]2CN(c3ncnc4sc(CC(F)(F)F)cc34)C[C@@H]2C1` (single isomer, unassigned) [Compound 77B], the half-maximal inhibitory concentration (IC50) under setting [1] amounted to 1620 nM.

In the case of `Cn1cc(CN2CC[C@@H]3CN(c4ncnc5sc(CC(F)(F)F)cc45)C[C@@H]32)cn1` [Compound 27C], the half-maximal inhibitory concentration (IC50) under setting [1] was 4530 nM.

On to `CC(C)(C)OC(=O)N1CCC(O)(CN2CC[C@@H]3CN(c4ncnc5sc(CC(F)(F)F)cc45)C[C@@H]3C2)CC1` (single isomer, unassigned) [Compound 109], for which the 50% inhibitory concentration (IC50) under setting [1] came to 714 nM.

Regarding `CC(C)[C@@H](c1cnn(C)c1)N1CC[C@H]2CN(c3ncnc4sc(CC(F)(F)F)cc34)C[C@H]2C1` (single isomer, unassigned) [Compound 78B], the concentration for half-maximal inhibition (IC50) under setting [1] came to 1320 nM.

As to `C[C@H](c1cnn(C)c1)N1CC[C@@H]2CN(c3ncnc4sc(CC(F)(F)F)cc34)C[C@@H]2C1` (single isomer, unassigned) [Compound 79A], under setting [1], the half-inhibitory concentration (IC50) came to 955 nM.

For `FC(F)(F)Cc1cc2c(N3C[C@H]4CCN(CC(F)(F)F)C[C@H]4C3)ncnc2s1` (single isomer, unassigned) [Compound 73], the 50% inhibitory concentration (IC50) under setting [1] was determined as 2460 nM.

On to `FC(F)(F)Cc1cc2c(N3C[C@H]4CCN(Cc5ccncn5)C[C@H]4C3)ncnc2s1` (single isomer, unassigned) [Compound 50], for which the half-inhibitory concentration (IC50) under setting [1] is 281 nM.

`CC(C)CN1CCC2CN(c3ncnc4sc(CC(F)(F)F)cc34)CCC21` (stereo not shown) [Compound 25]: the IC50 under setting [1] was determined as 546 nM.

Turning to `Cn1cc(CN2C(=O)C[C@@H]3CCN(c4ncnc5sc(CC(F)(F)F)cc45)C[C@@H]32)cn1` (single isomer, unassigned) [Compound 35B], the IC50 under setting [1] is over 25000 nM.

With `Cn1cc(CN2CC[C@@H]3CN(c4ncnc5sc(CC(F)(F)F)cc45)C[C@@H]3C2)cn1` (single isomer, unassigned) [Compound 71A], the 50% inhibitory concentration (IC50) under setting [1] was 985 nM.

`FC(F)CN1CC[C@@H]2CN(c3ncnc4sc(CC(F)(F)F)cc34)C[C@@H]2C1` (single isomer, unassigned) [Compound 74]: under setting [1], the IC50 turned out to be 2220 nM.

As to `FC(F)(F)Cc1cc2c(N3C[C@H]4CCN(CC5(F)CCOCC5)C[C@H]4C3)ncnc2s1` (single isomer, unassigned) [Compound 98], the IC50 under setting [1] was found to be 504 nM.

On to `OCCn1cc(CN2CCC3CN(c4ncnc5sc(CC(F)(F)F)cc45)CCC32)cn1` (stereo not shown) [Compound 24], for which the half-maximal inhibitory concentration (IC50) (individual measurements (not averaged), read-out: (3) Menin HTRF assay (IC50 (nM))) came out at 244 nM.

On to `Cn1cc(CN2CC[C@H]3CN(c4ncnc5sc(CC(F)(F)F)cc45)C[C@H]32)cn1` [Compound 27D], for which the half-inhibitory concentration (IC50) under setting [1] is about 6910 nM.

For the compound `O=c1cc(CN2CC[C@@H]3CN(c4ncnc5sc(CC(F)(F)F)cc45)C[C@@H]3C2)cc[nH]1` (single isomer, unassigned) [Compound 66], the 50% inhibitory concentration (IC50) under setting [1] is 492 nM.

Consider `FC(F)(F)Cc1cc2c(N3C[C@H]4CCN(Cc5cnccn5)C[C@H]4C3)ncnc2s1` (single isomer, unassigned) [Compound 53], for which the IC50 under setting [1] stood at 252 nM.

For `O=C([C@@H]1CCCN1)N1CC[C@@H]2CN(c3ncnc4sc(CC(F)(F)F)cc34)C[C@@H]2C1` [Compound 80], the IC50 under setting [1] stood at 933 nM.

`Cn1cc(CN2C(=O)C[C@H]3CCN(c4ncnc5sc(CC(F)(F)F)cc45)C[C@H]32)cn1` (single isomer, unassigned) [Compound 35A]: the IC50 under setting [1] came out at 8330 nM.

As for `CC(C)[C@H](c1cnn(C)c1)N1CC[C@H]2CN(c3ncnc4sc(CC(F)(F)F)cc34)C[C@H]2C1` (single isomer, unassigned) [Compound 78A], under setting [1], the IC50 came out at 520 nM.

For `COc1ncc(CN2CC[C@@H]3CN(c4ncnc5sc(CC(F)(F)F)cc45)C[C@@H]3C2)cn1` (single isomer, unassigned) [Compound 88], the IC50 under setting [1] is 267 nM.
